Values of other authors in paper PMC5260004, “Permeability across a novel microfluidic blood-tumor barrier model” (Fluids and Barriers of the CNS, 2017).

Tested on: P-gp
Design: method as in PMID 23916719
Settings: in vivo, rhodamine 123 and an inhibitor of P-gp administered concurrently

## COC(=O)c1ccccc1-c1c2ccc(=N)cc-2oc2cc(N)ccc12 [Rho123, Rhodamine 123]
  fold higher dye accumulation in brain with P-gp inhibitor than in the absence of efflux inhibition: 10- to 12 fold
